From patent US20110160250A1, “CRYSTALLINE FORMS OF A FACTOR XA INHIBITOR” (Millennium Pharmaceuticals, Inc., priority 2009, published 2011)
Read-outs that look alike come from different tables or passages of the source.

Tests used:
[1] = Pharmacokinetics of Compound I in dog after intravenous and oral administration (plasma LC/MS/MS, noncompartmental analysis); format: in vivo, male beagle dogs; settings: mean ± SD; for Vd: iv
Procedure: (§1) The following experiments were conducted using samples of Compound I prepared by a method disclosed in U.S. Pat. No. 7,763,608, which is incorporated by reference in its entirety.
(§2) For the dog and monkey study, Compound I was also used. An IV and PO dose of Compound I (1.0 and 5.0 mg/kg, respectively) was prepared. The IV dose was formulated similarly to that used in the rat study (50% PEG300 in water). The PO dose was suspended in 0.5% methylcellulose at a concentration of 1.0 mg/mL with a final pH of approximately 3.50.
(§3) A total of six male Sprague-Dawley rats (n=3/dosing group) from Charles River Laboratories (Hollister, Calif.), three male beagle dogs from Marshall BioResources (North Rose, N.Y.) and three male rhesus monkeys were utilized. All surgical procedures in rat (femoral and jugular vein catheterizations) were performed 8 days prior to utilization in the study and rats were acclimated in-house 5 days prior to utilization. Dogs were acclimated in-house at least seven days prior to utilization and were returned to the colony at the completion of the study. Monkey studies were conducted by an off-site contract laboratory.
(§4) All animals were fasted from the afternoon prior to study initiation to two hours post-dose (approximately 18 hours). Water was provided ad libitum. All animal rooms were on a 12 hour light-dark cycles (6 A.M. to 6 P.M.). On the morning of experimentation, animals were weighed. Rat femoral and jugular (IV only) vein blood lines were exteriorized and attached to access ports. Dogs were weighed and shaved at blood sampling and IV dosing sites (along both cephalic and saphenous veins).
(§5) All animals were dosed based on individual weights with a PO gavage volume of 5.0 mL/kg and an IV bolus dose volume of 1.0 mL/kg. Blood samples were obtained on 3.8% TSC (1:10 dilution) over a 24, 56, and 96 hour period post-dosing for the rat, dog, and monkey, respectively. Blood samples were centrifuged for platelet poor plasma, and resulting plasma was stored at −20° C. until sample analysis. Rat urine samples were collected on 200 μL of 2% boric acid from animals in the IV group at 0 (overnight), 10, and 24 hours post-dose. At collection times, urine volume and water consumption was recorded. Urine samples were stored at −20° C. until sample analysis.
(§6) Plasma and urine samples were analyzed for Compound I concentration using a liquid chromatography tandem mass spectrometry (LC/MS/MS). In brief, plasma and urine samples were processed in a 96-well Captiva™ filter plate (0.2 μm, Varian, Inc., Palo Alto, Calif.). Aliquots of plasma samples were precipitated with acetonitrile containing 500 ng/mL of N-(2-(5-chloropyridin-2-ylcarbaomoyl)-4-methoxyphenyl)-4-(N,N-dimethylcarbamimidoyl)-2-fluorobenzamide, an internal standard. Aliquots of urine samples were diluted with plasma before mixing with acetonitrile containing internal standard. The mixture was vortexed and refrigerated at 4° C. for 30 minutes to allow complete protein precipitation. The mixture was filtered into a 96-well collection plate. The filtrate was injected onto a Sciex API3000 LC/MS/MS equipped with a turbo-ion spray source. Compound I and N-(2-(5-chloropyridin-2-ylcarbaomoyl)-4-methoxyphenyl)-4-(N,N-dimethylcarbamimidoyl)-2-fluorobenzamide were separated on a Thermo Hypersil-Keystone Betasil C18 column (4.6×100 mm, 5 μm; Fisher Scientific, Houston, Tex.). A mobile phase gradient mixture of 90% mobile phase A (0.5% formic acid in water) and 10% mobile phase B (0.5% formic acid in 90% acetonitrile) to 40% mobile phase B (programmed over 2.8 minutes). The peak areas of the m/z 411→250 product ion (Compound I) were measured against those of the m/z 470→342 product ion (N-(2-(5-chloropyridin-2-ylcarbaomoyl)-4-methoxyphenyl)-4-(N,N-dimethylcarbamimidoyl)-2-fluorobenzamide) in positive ion mode. The analytical range was 0.500 to 10,000 ng/mL.
(§7) Sample Compound I concentrations below the lower limit of quantitation (LLQ) were reported as <0.500 ng/mL. […]

[2] = Pharmacokinetics of Compound I in rat after intravenous and oral administration (plasma and urine LC/MS/MS, noncompartmental analysis); format: in vivo, male Sprague-Dawley rats; settings: mean ± SD; for half-life: read-out: T1/2 (terminal half-life) (converted); for Vd: iv
Procedure: as §1
Compound I was used in the rat investigation. An intravenous (IV) and oral (PO) dose of Compound I (1.0 and 10 mg/kg, respectively) was prepared. The IV dose was solubilized in 50% PEG300 to yield a final concentration of 1.0 mg/mL with a final pH of 5.13. The PO dose was suspended in 0.5% methylcellulose at a concentration of 2.0 mg/mL with a final pH of 2.70.
as §3, §4, §5, §6, §7

[3] = Pharmacokinetics of Compound I in monkey after intravenous and oral administration (plasma LC/MS/MS, noncompartmental analysis); format: in vivo, male rhesus monkeys; settings: mean ± SD; for Vd: iv
Procedure: as §1, §2, §3, §4, §5, §6, §7

[4] = male, beagle, plasma, intravenous, 1 mg/kg
[5] = male, beagle, plasma, oral, 5 mg/kg
[6] = male, Sprague-Dawley, plasma, intravenous, 1 mg/kg
[7] = male, Sprague-Dawley, plasma, oral, 10 mg/kg
[8] = male, rhesus, rhesus monkey, plasma, intravenous, 1 mg/kg
[9] = male, rhesus, rhesus monkey, plasma, oral, 5 mg/kg

## O=C(NCc1cn(-c2ccc(-n3ccccc3=O)cc2)cn1)c1ccc(Cl)s1 [Compound I, 5-chloro-N-((1-(4-(2-oxopyridin-1(2H)-yl)phenyl)-1H-imidazol-4-yl)methyl)thiophene-2-carboxamide]
[1]; [4]
  AUC: 1620 ± 360 ng·h/mL
  AUC(0-inf): 1620 ± 363 ng·h/mL
[1]; male, beagle, plasma, intravenous, 1 mg/kg, read-out: CL (systemic clearance)
  clearance: 10.7 ± 2.69 mL/min/kg
[1]; male, beagle, plasma, 1 mg/kg, intravenous, 1 mg/kg, read-out: Vss (volume of distribution at steady-state)
  Vd: 0.843 ± 0.288 L/kg
[1]; male, beagle, plasma, 1 mg/kg, intravenous, 1 mg/kg, read-out: Vz (volume of distribution)
  Vd: 2.73 ± 2.45 L/kg
[1]; [5]
  AUC: 5460 ± 1470 ng·h/mL
  AUC(0-inf): 5480 ± 1480 ng·h/mL
  Cmax: 2720 ± 474 ng/mL
  Tmax: 0.583 ± 0.382 h
[1]; oral, 5 mg/kg
  AUC/D (dose-normalized AUC(0-inf)): 1095 ± 295 kg·h/mL
[2]; intravenous, 1 mg/kg
  Dose excreted unchanged in urine: 0.248 ± 0.019%
[2]; [6]
  AUC: 5380 ± 1190 ng·h/mL
  AUC(0-inf): 5400 ± 1160 ng·h/mL
  half-life: 2.86 ± 1.4 h
[2]; male, Sprague-Dawley, plasma, intravenous, 1 mg/kg, read-out: CL (systemic clearance)
  clearance: 3.19 ± 0.734 mL/min/kg
[2]; male, Sprague-Dawley, plasma, 1 mg/kg, intravenous, 1 mg/kg, read-out: Vss (volume of distribution at steady-state)
  Vd: 0.368 ± 0.026 L/kg
[2]; male, Sprague-Dawley, plasma, 1 mg/kg, intravenous, 1 mg/kg, read-out: Vz (volume of distribution)
  Vd: 0.757 ± 0.328 L/kg
[2]; [7]
  AUC: 68500 ± 12500 ng·h/mL
  AUC(0-inf): 68600 ± 12500 ng·h/mL
  Cmax: 28900 ± 2080 ng/mL
  Tmax: 0.25 h
  half-life: 2.72 ± 0.29 h
[2]; oral, 10 mg/kg
  AUC/D (dose-normalized AUC(0-inf)): 6859 ± 1249 kg·h/mL
[3]; [8]
  AUC: 12600 ± 6000 ng·h/mL
  AUC(0-inf): 12600 ± 6000 ng·h/mL
[3]; male, rhesus, rhesus monkey, plasma, intravenous, 1 mg/kg, read-out: CL (systemic clearance)
  clearance: 1.66 ± 1.06 mL/min/kg
[3]; male, rhesus, rhesus monkey, plasma, 1 mg/kg, intravenous, 1 mg/kg, read-out: Vss (volume of distribution at steady-state)
  Vd: 0.353 ± 0.059 L/kg
[3]; male, rhesus, rhesus monkey, plasma, 1 mg/kg, intravenous, 1 mg/kg, read-out: Vz (volume of distribution)
  Vd: 2.31 ± 1.71 L/kg
[3]; [9]
  AUC: 42100 ± 17200 ng·h/mL
  AUC(0-inf): 42200 ± 17200 ng·h/mL
  Cmax: 6040 ± 1880 ng/mL
  Tmax: 2 h
[3]; oral, 5 mg/kg
  AUC/D (dose-normalized AUC(0-inf)): 8430 ± 3449 kg·h/mL
